Source: US6451990B1, “Azithromycin preparation in its noncryst alline and crystalline dihydrate forms” (Astur-Pharma, S.A., priority 1999, dated 2002)
Read-outs that look alike come from different tables or passages of the source.

Tests used:
[1] = system: gram-positive and some cases of gram-negative bacteria; details: against gram-positive and some cases of gram-negative bacteria; Kirst, Sides 1989; cited from earlier work
[2] = cited from earlier work; for hygroscopicity of crystalline form: as described in EP 0,298,650
[3] = Hygroscopicity: water uptake under an atmosphere over 75% relative humidity; type: physicochemical; details: for water content: sample containing 3% water at start, atmosphere over 75% relative humidity
Method: 4. Hygroscopicity. Two different samples of non-crystalline azithromycin containing 3% water were kept under an atmosphere over 75% relative humidity. After 8 hours, water content in the first sample was 5.3%, while the second one contained 9.9% water after 72 hours.

For `CC[C@H]1OC(=O)[C@H](C)[C@@H](O[C@H]2C[C@@](C)(OC)[C@@H](O)[C@H](C)O2)[C@H](C)[C@@H](O[C@@H]2O[C@H](C)C[C@H](N(C)C)[C@H]2O)[C@](C)(O)C[C@@H](C)CN(C)[C@H](C)[C@@H](O)[C@]1(C)O` [Azithromycin, 9-deoxo-9a-aza-9a-methyl-9a-homoerythromycin A], the antimicrobial activity [1] is given as “excellent antimicrobial activity”.

In the case of `CC[C@H]1OC(=O)[C@H](C)[C@@H](O[C@H]2C[C@@](C)(OC)[C@@H](O)[C@H](C)O2)[C@H](C)[C@@H](O[C@@H]2O[C@H](C)C[C@H](N(C)C)[C@H]2O)[C@](C)(O)C[C@@H](C)CN(C)[C@H](C)[C@@H](O)[C@]1(C)O` [azithromycin dihydrate, 9-deoxo-9a-aza-9a-methyl-9a-homoerythromycin A dihydrate], the “hygroscopicity of crystalline form” value ([2]; dihydrate) is listed as “non-hygroscopic” and the “percentile water content (kept constant)” value ([2]; theoretical value 4.6%) is listed as 4.5-5%.

For `CC[C@H]1OC(=O)[C@H](C)[C@@H](O[C@H]2C[C@@](C)(OC)[C@@H](O)[C@H](C)O2)[C@H](C)[C@@H](O[C@@H]2O[C@H](C)C[C@H](N(C)C)[C@H]2O)[C@](C)(O)C[C@@H](C)CN(C)[C@H](C)[C@@H](O)[C@]1(C)O` [azithromycin monohydrate], the “hygroscopicity of crystalline form” value [2] is listed as “hygroscopic”.

In the case of `CC[C@H]1OC(=O)[C@H](C)[C@@H](O[C@H]2C[C@@](C)(OC)[C@@H](O)[C@H](C)O2)[C@H](C)[C@@H](O[C@@H]2O[C@H](C)C[C@H](N(C)C)[C@H]2O)[C@](C)(O)C[C@@H](C)CN(C)[C@H](C)[C@@H](O)[C@]1(C)O` [non-crystalline azithromycin, non-crystalline 9-deoxo-9a-aza-9a-methyl-9a-homoerythromycin A], the Hygroscopicity ([3]; conclusion from water uptake over 75% relative humidity) is reported as “moderately hygroscopic”, the water content ([3]; after 8 hours (first sample)) is reported as 5.3% and the water content ([3]; after 72 hours (second sample)) is reported as 9.9%.
